Results as given in BindingDB's records for doi:10.7270/Q2930RSV (Burnham Center For Chemical Genomics, 2012).

Target: T1, Caspase-3 (Homo sapiens, UniProt P42574)
T1 sequence (P42574 whole entry): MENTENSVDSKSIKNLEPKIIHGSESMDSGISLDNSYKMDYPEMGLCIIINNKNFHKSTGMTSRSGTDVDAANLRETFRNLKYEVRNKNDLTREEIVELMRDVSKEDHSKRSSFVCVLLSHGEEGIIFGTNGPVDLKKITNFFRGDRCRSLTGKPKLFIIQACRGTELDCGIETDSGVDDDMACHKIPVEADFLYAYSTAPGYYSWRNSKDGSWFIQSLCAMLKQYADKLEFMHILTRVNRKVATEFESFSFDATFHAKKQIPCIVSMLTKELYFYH

SMILES	IC50
CC(NC(=O)COC(=O)c1ccc([N+](=O)[O-])s1)c1ccccc1 (stereo not drawn) [[2-oxo-2-(1-phenylethylamino)ethyl] 5-nitrothiophene-2-carboxylate]	> 100 µM
CN(C)c1cc(N=NCc2ccccc2)nc(N(C)C)n1 [N2,N2,N4,N4-tetramethyl-N6-[(phenylmethylidene)amino]pyrimidine-2,4,6-triamine]	50.7 µM
COc1ccc(NC(=O)NNc2cc(N3CCOCC3)nc(N3CCOCC3)n2)cc1 [MLS000765810]	> 100 µM
Cc1[nH]n(-c2ccccc2)c(=O)c1S(=O)(=O)c1ccccc1 [5-methyl-2-phenyl-4-(phenylsulfonyl)-1H-pyrazol-3-one]	> 100 µM
O=C(COC(=O)c1ccc([N+](=O)[O-])s1)NCCc1ccccc1 [MLS002159124]	> 100 µM
COC(=O)c1ccc(C)cc1C1CN=NC12Cc1cc(C)ccc1C2=O (stereo not drawn) [4-methyl-2-(6-methyl-3-oxo-4'-spiro[1H-indene-2,5'-3,4-dihydropyrazole]yl)benzoic acid methyl ester]	> 100 µM
CC1(C)Cc2c(nn(-c3ccccc3)c(=N)c2C#N)CO1	1.09 µM
N#CC1(CCCN2CCCCC2)c2ccccc2CCc2ccccc21 [MLS001178552]	> 100 µM
CCC(=O)c1ccc(OCc2cn(CC(=O)c3ccc(O)cc3)nn2)cc1 [1-[4-[[1-[2-(4-hydroxyphenyl)-2-oxoethyl]triazol-4-yl]methoxy]phenyl]propan-1-one]	> 100 µM
O=C(NNc1cc(N2CCCC2)nc(N2CCCC2)n1)c1ccc([N+](=O)[O-])cc1 [N'-(2,6-dipyrrolidin-1-ylpyrimidin-4-yl)-4-nitrobenzohydrazide]	> 100 µM

Now from value to compound:

IC50	SMILES
> 100 µM	CN(C)c1ccc(NC(=O)c2ccc(Cn3cc([N+](=O)[O-])cn3)cc2)cc1 [MLS000727576]
> 100 µM	O=[N+]([O-])c1ccc(-n2[n-]c(=[N+]3CCOCC3)cc2O)cc1 [5-(4-morpholinyl)-2-(4-nitrophenyl)-4H-pyrazol-3-one]
> 100 µM	CCN(CC)c1ccc(NC2CC(=O)N(CCc3ccc(OC)cc3)C2=O)cc1 (stereo not drawn) [3-[4-(diethylamino)anilino]-1-[2-(4-methoxyphenyl)ethyl]pyrrolidine-2,5-dione]
> 100 µM	CCCCOc1cc(NCc2ccccc2)c2ncn(C(C)C)c2c1
> 100 µM	O=C(CCc1ccccc1)NNc1cc(N2CCCCC2)nc(N2CCCCC2)n1 [N'-[2,6-di(piperidin-1-yl)pyrimidin-4-yl]-3-phenylpropanehydrazide]
> 100 µM	COc1ccc(-c2csc(CCn3[nH]c(C)cc3=O)n2)cc1 [SMR000347900]
> 100 µM	CC(C)(C)c1ccc(C(=O)NNc2cc(N3CCCCC3)nc(N3CCCCC3)n2)cc1
> 100 µM	NS(=O)(=O)c1ccc(CCNC(=O)COC(=O)c2ccc([N+](=O)[O-])o2)cc1
